{
  "source": "patent US12286428B2",
  "about": "(BRISTOL-MYERS SQUIBB COMPANY, priority 2019, dated 2025)",
  "data": [
    {"target": "T1, IRAK4 (Homo sapiens, UniProt Q9NWZ3)", "T1 sequence (Q9NWZ3 1-460)": "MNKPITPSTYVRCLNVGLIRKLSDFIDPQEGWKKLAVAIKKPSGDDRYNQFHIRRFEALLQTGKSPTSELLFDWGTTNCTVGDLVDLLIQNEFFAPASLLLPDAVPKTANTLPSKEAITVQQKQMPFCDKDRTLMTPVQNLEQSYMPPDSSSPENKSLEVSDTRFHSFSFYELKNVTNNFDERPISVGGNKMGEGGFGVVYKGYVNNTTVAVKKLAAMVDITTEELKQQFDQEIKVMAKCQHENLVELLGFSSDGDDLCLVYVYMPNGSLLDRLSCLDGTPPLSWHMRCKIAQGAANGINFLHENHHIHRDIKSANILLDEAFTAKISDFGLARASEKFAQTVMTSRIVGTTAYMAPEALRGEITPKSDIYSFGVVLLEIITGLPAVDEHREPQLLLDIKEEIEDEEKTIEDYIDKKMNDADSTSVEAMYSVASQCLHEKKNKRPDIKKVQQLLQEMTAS", "assay": "IRAK4 Inhibition Assay", "assay_type": "biochemical", "settings": "ATP 500 μM; FL-IPTSPITTTYFFFKKK peptide […]; IRAK4 0.6 nM; 60 min room temperature; Caliper LABCHIP 3000", "procedure": "(§1) The assays were performed in U-bottom 384-well plates. […] The reaction was initiated by the combination of IRAK4 with substrates and test compounds. The reaction mixture was incubated at room temperature for 60 min. and terminated by adding 45 μL of 35 mM EDTA to each sample. The reaction mixture was analyzed on the Caliper LABCHIP® 3000 (Caliper, Hopkinton, MA) by electrophoretic separation of the fluorescent substrate and phosphorylated product. […] The final concentrations of reagents in the assays are ATP, 500 μM; FL-[…] peptide 1.5 μM; IRAK4, 0.6 nM; and DMSO, 1.6%.", "units": {"IC50": "nM"}, "values": [
      {"compound": "CC[C@H]1[C@@H](COc2cccc3cc(C(N)=O)c4ncnn4c23)NC(=O)C1(F)F", "note": "[Example 39, 9-(((2S,3S)-3-ethyl-4,4-difluoro-5-oxopyrrolidin-2-yl)methoxy)-[1,2,4]triazolo[1,5-a]quinoline-4-carboxamide]", "IC50": 15.9},
      {"compound": "CC[C@@H]1CC(=O)N[C@@H]1COc1cccc2cc(C(N)=O)c3nnnn3c12", "note": "[Example 44, 9-(((2S,3R)-3-ethyl-5-oxopyrrolidin-2-yl)methoxy)tetrazolo[1,5-a]quinoline-4-carboxamide]", "IC50": 9.6},
      {"compound": "CC[C@H]1OC(=O)N[C@H]1COc1nccc2cc(C(N)=O)c3nccn3c12", "note": "[Example 23, 1-(((4S,5R)-5-ethyl-2-oxooxazolidin-4-yl)methoxy)imidazo[1,2-a][1,7]naphthyridine-6-carboxamide]", "IC50": 262},
      {"compound": "CC[C@@H]1[C@H](F)C(=O)N[C@@H]1COc1cccc2cc(C(N)=O)c3nc(C(C)(C)O)cn3c12", "note": "[Example 13, 9-(((2S,3S,4S)-3-ethyl-4-fluoro-5-oxopyrrolidin-2-yl)methoxy)-2-(2-hydroxypropan-2-yl)imidazo[1,2-a]quinoline-4-carboxamide]", "IC50": 1430},
      {"compound": "CC[C@@H]1[C@H](F)C(=O)N[C@@H]1COc1cccc2cc(C(N)=O)n3nccc3c12", "note": "[Example 34, 10-(((2S,3S,4S)-3-ethyl-4-fluoro-5-oxopyrrolidin-2-yl)methoxy)pyrazolo[5,1-a]isoquinoline-5-carboxamide]", "IC50": 0.9},
      {"compound": "CC[C@@H]1[C@H](F)C(=O)N[C@@H]1COc1nccc2cc(C(N)=O)c3ncccc3c12", "note": "[Example 56, 1-(((2S,3S,4S)-3-ethyl-4-fluoro-5-oxopyrrolidin-2-yl)methoxy)-2,7-phenanthroline-6-carboxamide]", "IC50": 2.8},
      {"compound": "CC[C@@H]1CC(=O)N[C@@H]1COc1nc(C)cc2cc(C(N)=O)c3nc(C)cn3c12", "note": "[Example 29, 1-(((2S,3R)-3-ethyl-5-oxopyrrolidin-2-yl)methoxy)-3,8-dimethylimidazo[1,2-a][1,7]naphthyridine-6-carboxamide]", "IC50": 601},
      {"compound": "CC[C@H]1OCC(=O)N[C@H]1COc1nccc2cc(C(N)=O)c3nccn3c12", "note": "[Example 25, 1-(((2R,3S)-2-ethyl-5-oxomorpholin-3-yl)methoxy)imidazo[1,2-a][1,7]naphthyridine-6-carboxamide]", "IC50": 1930},
      {"compound": "CC[C@@H]1[C@H](F)C(=O)N(CO)[C@@H]1COc1nccc2cc(C(N)=O)c3nccn3c12", "note": "[Example 32]", "IC50": 62},
      {"compound": "CC[C@H]1CC(=O)N[C@@H]1COc1cccc2cc(C(N)=O)c3nncn3c12", "note": "[Example 42, 9-(((2S,3S)-3-ethyl-5-oxopyrrolidin-2-yl)methoxy)-[1,2,4]triazolo[4,3-a]quinoline-4-carboxamide]", "IC50": 290},
      {"compound": "CC[C@@H]1CC(=O)N[C@@H]1COc1cccc2cc(C(N)=O)c3nncn3c12", "note": "[Example 41, 9-(((2S,3R)-3-ethyl-5-oxopyrrolidin-2-yl)methoxy)-[1,2,4]triazolo[4,3-a]quinoline-4-carboxamide]", "IC50": 42.2},
      {"compound": "CC[C@@H]1[C@H](F)C(=O)N[C@@H]1COc1cccc2cc(C(N)=O)c3nc(C)nn3c12", "note": "[Example 40, 9-(((2S,3S,4S)-3-ethyl-4-fluoro-5-oxopyrrolidin-2-yl)methoxy)-2-methyl-[1,2,4]triazolo[1,5-a]quinoline-4-carboxamide]", "IC50": 39.1},
      {"compound": "CC[C@@H]1[C@H](F)C(=O)N[C@@H]1COc1nccc2cc(C(N)=O)c3c(c12)CC(C)(C)O3", "note": "[Example 63, 1-(((2S,3S,4S)-3-ethyl-4-fluoro-5-oxopyrrolidin-2-yl)methoxy)-8,8-dimethyl-8,9-dihydrofuro[2,3-h]isoquinoline-6-carboxamide]", "IC50": 2.2},
      {"compound": "CC[C@@H]1OC(=O)N[C@H]1COc1nccc2cc(C(N)=O)c3nccn3c12", "note": "[Example 24, 1-(((4S,5S)-5-ethyl-2-oxooxazolidin-4-yl)methoxy)imidazo[1,2-a][1,7]naphthyridine-6-carboxamide]", "IC50": 176},
      {"compound": "CC[C@@H]1[C@H](F)C(=O)N[C@@H]1COc1nccc2cc(C(N)=O)c3ncnn3c12", "note": "[Example 47, 9-(((2S,3S,4S)-3-ethyl-4-fluoro-5-oxopyrrolidin-2-yl)methoxy)-[1,2,4]triazolo[1,5-a][1,7]naphthyridine-4-carboxamide]", "IC50": 78.1},
      {"compound": "CC[C@H]1[C@@H](COc2cccc3cc(C(N)=O)c4nccn4c23)NC(=O)[C@@]1(C)F", "note": "[Example 6, 9-(((2S,3 S,4S)-3-ethyl-4-fluoro-4-methyl-5-oxopyrrolidin-2-yl)methoxy)imidazo[1,2-a]quinoline-4-carboxamide]", "IC50": 518},
      {"compound": "CC[C@@H]1[C@H](F)C(=O)N[C@@H]1COC1=CC=CC2C(NC)=C(C(N)=O)c3nccn3C12", "note": "(stereo partly drawn) [Example 61, 9-(((2S,3S,4S)-3-ethyl-4-fluoro-5-oxopyrrolidin-2-yl)methoxy)-5-(methylamino)-5a,9a-dihydroimidazo[1,2-a]quinoline-4-carboxamide]", "IC50": 94.4},
      {"compound": "CC[C@@H]1CC(=O)N[C@@H]1COC1=C(F)C=CC2C=C(C(N)=O)c3nccn3C12", "note": "(stereo partly drawn) [Example 59, 9-(((2S,3R)-3-ethyl-5-oxopyrrolidin-2-yl)methoxy)-8-fluoro-5a,9a-dihydroimidazo[1,2-a]quinoline-4-carboxamide]", "IC50": 112},
      {"compound": "CC[C@@H]1[C@H](F)C(=O)N[C@@H]1COc1cccc2cc(C(N)=O)c3ncnn3c12", "note": "[Example 38, 9-(((2S,3S,4S)-3-ethyl-4-fluoro-5-oxopyrrolidin-2-yl)methoxy)-[1,2,4]triazolo[1,5-a]quinoline-4-carboxamide]", "IC50": 60.3},
      {"compound": "CC[C@@H]1[C@H](F)C(=O)N[C@@H]1COc1cccc2cc(C(N)=O)c3nnnn3c12", "note": "[Example 45, 9-(((2S,3S,4S)-3-ethyl-4-fluoro-5-oxopyrrolidin-2-yl)methoxy)tetrazolo[1,5-a]quinoline-4-carboxamide]", "IC50": 70},
      {"compound": "NC(=O)c1cc2cccc(OC[C@H]3COCC(=O)N3)c2n2ccnc12", "note": "[Example 7, (R)-9-((5-oxomorpholin-3-yl)methoxy)imidazo[1,2-a]quinoline-4-carboxamide]", "IC50": 243},
      {"compound": "CC[C@H]1CC(=O)N[C@@H]1COc1nccc2cc(C(N)=O)c3nc(C(F)(F)F)cn3c12", "note": "[Example 31, 1-(((2S,3S)-3-ethyl-5-oxopyrrolidin-2-yl)methoxy)-8-(trifluoromethyl)imidazo[1,2-a][1,7]naphthyridine-6-carboxamide]", "IC50": 1060},
      {"compound": "CC[C@@H]1CC(=O)N[C@@H]1COC1=CC=CC2C=C(C#N)c3nccn3C12", "note": "(stereo partly drawn) [Example 60, 9-(((2S,3R)-3-ethyl-5-oxopyrrolidin-2-yl)methoxy)-5a,9a-dihydroimidazo[1,2-a]quinoline-4-carbonitrile]", "IC50": 350},
      {"compound": "CC[C@@H]1OCC(=O)N[C@@H]1COc1nccc2cc(C(N)=O)c3nccn3c12", "note": "[Example 26, 1-(((2S,3R)-2-ethyl-5-oxomorpholin-3-yl)methoxy)imidazo[1,2-a][1,7]naphthyridine-6-carboxamide]", "IC50": 80.4},
      {"compound": "CC[C@@H]1CC(=O)N[C@@H]1COc1nc(C)cc2cc(C(N)=O)c3nccn3c12", "note": "[Example 28, 1-(((2S,3R)-3-ethyl-5-oxopyrrolidin-2-yl)methoxy)-3-methylimidazo[1,2-a][1,7]naphthyridine-6-carboxamide]", "IC50": 225},
      {"compound": "CC[C@@H]1[C@H](F)C(=O)N[C@@H]1COc1cccc2cc(C(N)=O)c3nncn3c12", "note": "[Example 43, 9-(((2S,3S,4S)-3-ethyl-4-fluoro-5-oxopyrrolidin-2-yl)methoxy)-[1,2,4]triazolo[4,3-a]quinoline-4-carboxamide]", "IC50": 16.2},
      {"compound": "NC(=O)c1cc2ccnc(OC[C@@H]3CNC(=O)N3)c2n2ccnc12", "note": "[Example 27, (S)-1-((2-oxoimidazolidin-4-yl)methoxy)imidazo[1,2-a][1,7]naphthyridine-6-carboxamide]", "IC50": 1820},
      {"compound": "1-(((2S,3S,4S)-3-ethyl-4-fluoro-5-oxotetrahydrofuran-2-yl)methoxy)-8-methyl-8,9-dihydrofuro[2,3-h]isoquinoline-6-carboxamide [Example 52]", "IC50": 1.3}
    ]},
    {"target": "T1, IRAK4", "assay": "IRAK4 Inhibition Assay", "assay_type": "biochemical", "settings": "ATP 500 μM; FL-[…] peptide 1.5 μM; IRAK4 0.6 nM; 60 min room temperature; Caliper LABCHIP 3000", "procedure": "as §1", "units": {"IC50": "nM"}, "values": [
      {"compound": "CC[C@@H]1CC(=O)N[C@@H]1COc1nccc2cc(C(N)=O)c3nc(C(F)(F)F)cn3c12", "note": "[Example 30, 1-(((2S,3R)-3-ethyl-5-oxopyrrolidin-2-yl)methoxy)-8-(trifluoromethyl)imidazo[1,2-a][1,7]naphthyridine-6-carboxamide]", "IC50": 1720}
    ]},
    {"test_system": "Human whole blood, IL-6 levels after TLR2 agonist lipoteichoic acid", "assay": "IRAK4 Whole Blood Assay", "assay_type": "cell-based", "settings": "compounds 60 minutes at 37° C., lipoteichoic acid 10 μg/mL for 5 hours", "procedure": "IRAK4 Whole Blood Assay Human whole blood containing the anti-coagulant ACD-A was plated in 384-well plate (25 μL/well) and incubated with compounds for 60 minutes at 37° C. in a 5% CO2 incubator. The blood was stimulated with a TLR2 agonist, 10 μg/mL final concentration of lipoteichoic acid (Invivogen, San Diego, CA) in 25 μL RPMI (Gibco) for 5 hours in a 5% CO2 incubator. At the end of the incubation, plates were centrifuged at 2300 rpm for 5 minutes. Supernatants were harvested and analyzed for IL-6 levels by Flow Cytometry beads assay (BD Biosciences, San Jose, CA).", "units": {"IC50": "nM"}, "values": [
      {"compound": "CC[C@H]1[C@@H](COc2cccc3cc(C(N)=O)c4ncnn4c23)NC(=O)C1(F)F", "note": "[Example 39, 9-(((2S,3S)-3-ethyl-4,4-difluoro-5-oxopyrrolidin-2-yl)methoxy)-[1,2,4]triazolo[1,5-a]quinoline-4-carboxamide]", "IC50": 78},
      {"compound": "CC[C@@H]1CC(=O)N[C@@H]1COc1cccc2cc(C(N)=O)c3nnnn3c12", "note": "[Example 44, 9-(((2S,3R)-3-ethyl-5-oxopyrrolidin-2-yl)methoxy)tetrazolo[1,5-a]quinoline-4-carboxamide]", "IC50": 1030},
      {"compound": "CC[C@@H]1[C@H](F)C(=O)N[C@@H]1COc1cccc2cc(C(N)=O)n3nccc3c12", "note": "[Example 34, 10-(((2S,3S,4S)-3-ethyl-4-fluoro-5-oxopyrrolidin-2-yl)methoxy)pyrazolo[5,1-a]isoquinoline-5-carboxamide]", "IC50": 279},
      {"compound": "CC[C@@H]1[C@H](F)C(=O)N[C@@H]1COc1nccc2cc(C(N)=O)c3ncccc3c12", "note": "[Example 56, 1-(((2S,3S,4S)-3-ethyl-4-fluoro-5-oxopyrrolidin-2-yl)methoxy)-2,7-phenanthroline-6-carboxamide]", "IC50": 2130}
    ]}
  ]
}
